In patent publication US5955463A, “Quinazoline thymidylate synthase inhibitors” (Zeneca Limited, priority 1992, dated 1999):

Assays:
[1] = test system: human breast, ovarian and liver cancer; conditions: clinical trials; cited from earlier work
[2] = particularly liver and kidney; cited from earlier work
thymidylate synthase = target: T1, thymidylate synthase (Mus musculus, UniProt P07607); assay: Test (a): in vitro inhibition of thymidylate synthase (partially purified from L1210 mouse leukaemia cells); type: biochemical
T1 construct: obtained in partially purified form from L1210 mouse leukaemia cells; endogenous in cells; host or cells: L1210 mouse leukaemia cells
T1 sequence (P07607 whole entry): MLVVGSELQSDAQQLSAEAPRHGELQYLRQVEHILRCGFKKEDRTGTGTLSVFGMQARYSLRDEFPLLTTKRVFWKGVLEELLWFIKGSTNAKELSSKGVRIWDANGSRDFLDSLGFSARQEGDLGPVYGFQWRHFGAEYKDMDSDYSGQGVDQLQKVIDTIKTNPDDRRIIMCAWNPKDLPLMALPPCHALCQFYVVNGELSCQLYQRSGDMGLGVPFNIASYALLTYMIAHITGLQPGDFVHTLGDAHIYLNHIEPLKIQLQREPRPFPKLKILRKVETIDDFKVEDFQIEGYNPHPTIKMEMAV
From the text: (a) An in vitro assay which determines the ability of a test compound to inhibit the enzyme thymidylate synthase.

[3] = test system: leukaemia cell line L1210; assay: Test (b): inhibition of growth of leukaemia cell line L1210 in cell culture; type: cell-based; conditions: Mus musculus
From the text: (b) An assay which determines the ability of a test compound to inhibit the growth of the leukaemia cell line L1210 in cell culture.

[4] = test system: human breast cancer cell line MCF-7; assay: Test (c): inhibition of growth of human breast cancer cell line MCF-7 in cell culture; type: cell-based; conditions: MCF7, MCF-7 cell culture growth
From the text: (c) An assay which determines the ability of a test compound to inhibit the growth of the human breast cancer cell line MCF-7 in cell culture.

Question: For `C#CCN(Cc1ccc2nc(N)[nH]c(=O)c2c1)c1ccc(C(=O)N[C@@H](CCC(=O)O)C(=O)O)cc1` [CB3717], which “activity against human breast, ovarian and liver cancer” value [1] is on record?
Answer: promising activity against human breast, ovarian and liver cancer

Question: And the “symptoms of toxicity in humans” value [2]?
Answer: shows symptoms of toxicity in humans, particularly in relation to the liver and kidney

Question: Which results are given for `C#CCN(Cc1ccc2nc(C)[nH]c(=O)c2c1)c1ccc(C(=O)N[C@@H](CCc2nnn[nH]2)C(=O)O)cc1` [(2S)-2-{p-[N-(2-methyl-4-oxo-3,4-dihydroquinazolin-6-ylmethyl)-N-(prop-2-ynyl)amino]benzamido}-4-(tetrazol-5-yl)butyric acid]?
Answer: IC50 (thymidylate synthase): ~13 nM; IC50 [3]: ~120 nM; IC50 [4]: ~40 nM

Question: Which results are given for `Cc1nc2cc(C)c(CN(C)c3ccc(C(=O)N[C@@H](CCc4nnn[nH]4)C(=O)O)c(F)c3)cc2c(=O)[nH]1` [(2S)-2-{o-fluoro-p-[N-(2,7-dimethyl-4-oxo-3,4-dihydroquinazolin-6-ylmethyl)-N-methylamino]benzamido}-4-(tetrazol-5-yl)butyric acid]?
Answer: IC50 (thymidylate synthase): ~2 nM; IC50 [3]: ~70 nM; IC50 [4]: ~40 nM

Question: What does the source list for `C#CCN(Cc1cc2c(=O)[nH]c(C)nc2cc1C)c1ccc(C(=O)N[C@@H](CCc2nnn[nH]2)C(=O)O)c(F)c1` [(2S)-2-{o-fluoro-p-[N-(2,7-dimethyl-4-oxo-3,4-dihydroquinazolin-6-ylmethyl)-N-(prop-2-ynyl)amino]benzamido}-4-(tetrazol-5-yl)butyric acid]?
Answer: IC50 [3]: ~20 nM; IC50 [4]: ~10 nM
